Reference: EP3057951B1, “METHYLENE LINKED QUINOLINYL MODULATORS OF ROR-GAMMA-T” (Janssen Pharmaceutica NV, priority 2013, dated 2015)
pIC50, pKd: −log10 of the molar value. Structures can show the parent of a compound that is named as a salt. Where two headings read alike, the source gives them in different places.

Tests used:
[1] = molecular target: T1, wild type human RORγt ligand binding domain (RORyt LBD) (Homo sapiens, UniProt P51449); assay: RORγt ThermoFluor assay (thermal shift, binding affinity KD)
T1 construct: His-tag (N); TurboTEV protease cleavage site (ENLYFQG) (N); made in house; host or cells: E. coli (pHIS1, modified pET vector)
T1 sequence (P51449 258-518): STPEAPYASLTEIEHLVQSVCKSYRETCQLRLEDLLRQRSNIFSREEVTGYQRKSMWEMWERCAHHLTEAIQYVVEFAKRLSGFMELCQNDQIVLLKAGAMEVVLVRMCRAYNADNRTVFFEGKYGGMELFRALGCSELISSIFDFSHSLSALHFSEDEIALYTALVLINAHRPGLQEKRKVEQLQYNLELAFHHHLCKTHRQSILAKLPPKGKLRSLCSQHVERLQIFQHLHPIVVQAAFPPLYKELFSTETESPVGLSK

[2] = molecular target: T2, wild type human RORγt LBD (Homo sapiens, UniProt P51449); assay: RORγt (LBD) Reporter Assay (GAL4-luciferase, HEK293T cells); type: cell-based; details: for inhibition at 6 µM: HEK-293T, read-out: RORγt (LBD) Reporter Assay, % inhibition @ 6 µM, 6 µM compound concentration; for RORγt (LBD) Reporter Assay, % inhibition @ 6 µM: 6 µM compound concentration
T2 construct: expressed in transfected cells; host or cells: HEK293T
T2 sequence (P51449 258-518): T1 sequence (P51449 258-518)

[3] = HEK293T cells, value after the comma with ∼, > or < could not be included in the average

Compound | pKd [1] | pIC50 [2, 3] | inhibition at 6 µM [2] | pIC50 ([2]; HEK293T cells) | inhibition at 6 µM ([2]; HEK293T cells) | RORγt (LBD) Reporter Assay, % inhibition @ 6 µM ([2]; 6 µM) | RORγt (LBD) Reporter Assay, % inhibition @ 6 µM ([2]; HEK293T cells, 6 µM) | RORγt (LBD) Reporter Assay, % inhibition @ 6 µM [2]
Cc1ccc(C(O)(c2ccc3nc(Cl)c(Cc4ccc(C(F)(F)F)cc4)c(Cl)c3c2)c2cnnn2C)c(C)n1 (stereo not drawn) [Example 139] | 9.85 | – | – | 7.70 | 98% | – | – | –
COc1nc2ccc(C(O)(c3ccc(C)nc3C)c3cnnn3C)cc2c(Cl)c1Cc1ccc(-n2cncn2)cc1 (single isomer, unassigned) [Example 22c, (3-(4-(1H-1,2,4-Triazol-1-yl)benzyl)-4-chloro-2-methoxyquinolin-6-yl)(2,6-dimethylpyridin-3-yl)(1-methyl-1H-1,2,3-triazol-5-yl)methanol] | 8.70 | 7.96 | – | – | – | 98% | – | –
COc1nc2ccc(C(O)(c3ccc(C)nc3C)c3cnnn3C)cc2c(Cl)c1Cc1ccc(C)cc1 (stereo not drawn) [Example 20a, (4-Chloro-2-methoxy-3-(4-methylbenzyl)quinolin-6-yl)(2,6-dimethylpyridin-3-yl)(1-methyl-1H-1,2,3-triazol-5-yl)methanol] | 8.96 | 7.40 | 91% | – | – | – | – | –
Cc1ccc(C(O)(c2ccc3nc(N4CCC4)c(Cc4ccc(-n5cccn5)cc4)c(Cl)c3c2)c2cnnn2C)c(C)n1 (single isomer, unassigned) [Example 141b, {2-Azetidin-1-yl-4-chloro-3-[4-(1H-pyrazol-1-yl)benzyl]quinolin-6-yl}(2,6-dimethylpyridin-3-yl)(1-methyl-1H-1,2,3-triazol-5-yl)methanol] | 4.77 | – | – | < 5.22 | – | – | 20% | –
COc1ccc(C(O)(c2cccnc2)c2ccc3nc(OC)c(Cc4ccc(-n5cccn5)cc4)c(Cl)c3c2)cc1OC (single isomer, unassigned) [Example 159b, (3-(4-(1H-Pyrazol-1-yl)benzyl)-4-chloro-2-methoxyquinolin-6-yl)(3,4-dimethoxyphenyl)(pyridin-3-yl)methanol] | 6.29 | – | – | 6.43 | 107% | – | – | –
COc1nc2ccc(C(O)(c3cnnn3C)c3cnc(C)n3C)cc2c(Cl)c1Cc1ccc(C(F)(F)F)nc1 (stereo not drawn) [Example 43a, (4-Chloro-2-methoxy-3-((6-(trifluoromethyl)pyridin-3-yl)methyl)quinolin-6-yl)(1,2-dimethyl-1H-imidazol-5-yl)(1-methyl-1H-1,2,3-triazol-5-yl)methanol] | 9.00 | 8.10 | 98% | – | – | – | – | –
COc1nc2ccc(C(O)(c3ccc(C)nc3C)c3cncn3C)cc2c(Cl)c1Cc1ccc(C(F)(F)F)cc1 (single isomer, unassigned) [Example 88b, (4-Chloro-2-methoxy-3-(4-(trifluoromethyl)benzyl)quinolin-6-yl)(2,6-dimethylpyridin-3-yl)(1-methyl-1H-imidazol-5-yl)methanol] | 6.32 | 6.13 | 95% | – | – | – | – | –
CC(=O)N1CCC(C(O)(c2cc(C)c3nc(C#N)c(Cc4ccc(-n5cccn5)cc4)c(C#N)c3c2)c2cncn2C)CC1 (single isomer, unassigned) [Example 81c, 3-(4-(1H-Pyrazol-1-yl)benzyl)-6-((1-acetylpiperidin-4-yl)(hydroxy)(1-methyl-1H-imidazol-5-yl)methyl)-8-methylquinoline-2,4-dicarbonitrile] | 7.31 | 6.25 | – | – | – | – | – | 97%
COc1nc2ccc(C(O)(c3ccccc3)C3CCN(C(C)=O)CC3)cc2c(Cl)c1Cc1ccc(F)cc1 (stereo not drawn) [Example 50, 1-(4-((4-Chloro-3-(4-fluorobenzyl)-2-methoxyquinolin-6-yl)(hydroxy)(phenyl)methyl)piperidin-1-yl)ethanone] | 8.00 | ~5.40 | 82% | – | – | – | – | –
COc1ccc(C(O)(c2cccnc2)c2ccc3nc(OC)c(Cc4ccc(-n5cccn5)cc4)c(Cl)c3c2)cc1OC (single isomer, unassigned) [Example 159c, (3-(4-(1H-Pyrazol-1-yl)benzyl)-4-chloro-2-methoxyquinolin-6-yl)(3,4-dimethoxyphenyl)(pyridin-3-yl)methanol] | 7.85 | – | – | 7.29 | – | – | 105% | –
Cn1cncc1C(O)(c1ccc2nc(C(F)(F)F)c(Cc3ccccc3)c(C#N)c2c1)c1ccccn1 (racemic) [Example 99a, 3-Benzyl-6-(hydroxy(1-methyl-1H-imidazol-5-yl)(pyridin-2-yl)methyl)-2-(trifluoromethyl)quinoline-4-carbonitrile•TFA] | 7.70 | 7.01 | 93% | – | – | – | – | –
Cn1cncc1C(O)(c1ccc(C(F)(F)F)nc1)c1ccc2nc(C(F)(F)F)c(Cc3ccccc3)c(Cl)c2c1 (stereo not drawn) [Example 105, (3-Benzyl-4-chloro-2-(trifluoromethyl)quinolin-6-yl)(1-methyl-1H-imidazol-5-yl)(6-(trifluoromethyl)pyridin-3-yl)methanol•TFA] | 8.25 | < 5.22 | 38% | – | – | – | – | –
COc1ccc(C(O)(c2cccnc2)c2ccc3nc(OC)c(Cc4ccc(-n5cccn5)cc4)c(Cl)c3c2)cc1OC (stereo not drawn) [Example 159a, (3-(4-(1H-Pyrazol-1-yl)benzyl)-4-chloro-2-methoxyquinolin-6-yl)(3,4-dimethoxyphenyl)(pyridin-3-yl)methanol] | 7.54 | – | – | 6.92 | 107% | – | – | –
Cc1ccc(C(O)(c2ccc3nc(N4CCC4)c(Cc4ccc(-n5cccn5)cc4)c(Cl)c3c2)c2cnnn2C)c(C)n1 (single isomer, unassigned) [Example 141c, {2-Azetidin-1-yl-4-chloro-3-[4-(1H-pyrazol-1-yl)benzyl]quinolin-6-yl}(2,6-dimethylpyridin-3-yl)(1-methyl-1H-1,2,3-triazol-5-yl)methanol] | 5.15 | – | – | < 5.22 | – | – | 5% | –
Cn1cncc1C(O)(c1ccc2nc(C(F)(F)F)c(Cc3ccccc3)c(C#N)c2c1)c1ccccn1 (single isomer, unassigned) [Example 99c, 3-Benzyl-6-(hydroxy(1-methyl-1H-imidazol-5-yl)(pyridin-2-yl)methyl)-2-(trifluoromethyl)quinoline-4-carbonitrile] | 7.92 | 7.70 | – | – | – | 97% | – | –

More lines, in order of rising pKd [1], values ahead:

pKd [1] | pIC50 [2, 3] | inhibition at 6 µM [2] | pIC50 ([2]; HEK293T cells) | inhibition at 6 µM ([2]; HEK293T cells) | RORγt (LBD) Reporter Assay, % inhibition @ 6 µM ([2]; 6 µM) | RORγt (LBD) Reporter Assay, % inhibition @ 6 µM ([2]; HEK293T cells, 6 µM) | RORγt (LBD) Reporter Assay, % inhibition @ 6 µM [2] | Compound
4.96 | – | – | < 5.22 | 42% | – | – | – | Cc1ccc(C(O)(c2ccc3nc(N4CCC4)c(Cc4ccc(-n5cccn5)cc4)c(Cl)c3c2)c2cnnn2C)c(C)n1 (stereo not drawn) [Example 141a, {2-Azetidin-1-yl-4-chloro-3-[4-(1H-pyrazol-1-yl)benzyl]quinolin-6-yl}(2,6-dimethylpyridin-3-yl)(1-methyl-1H-1,2,3-triazol-5-yl)methanol]
6.82 | 6.60 | 94% | – | – | – | – | – | COc1nc2ccc(C(O)(c3ccc(C#N)cc3)c3cncn3C)cc2c(Cl)c1Cc1ccc(C(F)(F)F)nc1 (single isomer, unassigned) [Example 38b, 4-((4-Chloro-2-methoxy-3-((6-(trifluoromethyl)pyridin-3-yl)methyl)quinolin-6-yl)(hydroxy)(1-methyl-1H-imidazol-5-yl)methyl)benzonitrile]
6.85 | 6.39 | 99% | – | – | – | – | – | COc1nc2ccc(C(O)(c3ccc(C#N)cc3)c3cncn3C)cc2c(C#N)c1Cc1ccc(-n2cncn2)cc1 (single isomer, unassigned) [Example 15b, 3-(4-(1H-1,2,4-Triazol-1-yl)benzyl)-6-((4-cyanophenyl)(hydroxy)(1-methyl-1H-imidazol-5-yl)methyl)-2-methoxyquinoline-4-carbonitrile]
6.89 | ~6.66 | 92% | – | – | – | – | – | COc1nc2ccc(C(O)(c3ccc(C)nc3C)c3cnnn3C)cc2c(Cl)c1Cc1ccc(N(C)C)cc1 (single isomer, unassigned) [Example 24b, (4-Chloro-3-(4-(dimethylamino)benzyl)-2-methoxyquinolin-6-yl)(2,6-dimethylpyridin-3-yl)(1-methyl-1H-1,2,3-triazol-5-yl)methanol]
8.51 | 7.48 | 101% | – | – | – | – | – | Cc1nc2ccc(C(O)(c3ccc(C(F)(F)F)nc3)c3cncn3C)cc2c(Cl)c1Cc1ccc(C(F)(F)F)cc1 (stereo not drawn) [Example 26a, (4-Chloro-2-methyl-3-(4-(trifluoromethyl)benzyl)quinolin-6-yl)(1-methyl-1H-imidazol-5-yl)(6-(trifluoromethyl)pyridin-3-yl)methanol]
8.60 | – | – | 7.47 | – | – | 99% | – | Cc1ccc(C(O)(c2ccc3nc(Cl)c(Cc4ccc(C(F)(F)F)cc4)c(NC4CC4)c3c2)c2cnnn2C)c(C)n1 (single isomer, unassigned) [Example 144c, {2-Chloro-4-(cyclopropylamino)-3-[4-(trifluoromethyl)benzyl]quinolin-6-yl}(2,6-dimethylpyridin-3-yl)(1-methyl-1H-1,2,3-triazol-5-yl)methanol]
10.70 | 8.68 | – | – | – | 99% | – | – | CCc1nc2ccc(C(O)(c3cnnn3C)c3cnc(C)n3C)cc2c(Cl)c1Cc1ccc(C(F)(F)F)cc1 (single isomer, unassigned) [Example 25c, (4-Chloro-2-ethyl-3-(4-(trifluoromethyl)benzyl)quinolin-6-yl)(1,2-dimethyl-1H-imidazol-5-yl)(1-methyl-1H-1,2,3-triazol-5-yl)methanol]
